Measurements taken from PubChem BioAssay (NCI).
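1) Cells in 96-well plates. 2) Compound, 48 h, 5 concentrations. 3) Linear interpolation between surrounding doses. 4) Unreached endpoint = highest concentration. TGI: total growth inhibition.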

Assays:
Assay in all cases: inhibition of tumour cell growth, NCI panel, 48 h
[1] = test system: SK-OV-3 ovarian
[2] = test system: EKVX NSCLC
[3] = test system: KM12 colon
[4] = test system: HCT-116 colon
[5] = test system: OVCAR-4 ovarian
[6] = test system: HOP-92 NSCLC
[7] = test system: UO-31 renal
[8] = test system: MOLT-4 leukemia
[9] = test system: SF-295 CNS
[10] = test system: DLD-1 colon
[11] = test system: RPMI-8226 leukemia
[12] = test system: HL-60(TB) leukemia
[13] = test system: UACC-62 melanoma
[14] = test system: A549 NSCLC
[15] = test system: MALME-3M melanoma
[16] = test system: SK-MEL-5 melanoma
[17] = test system: SNB-19 CNS
[18] = test system: DMS 114 small cell lung
[19] = test system: TK-10 renal
[20] = test system: UACC-257 melanoma
[21] = test system: OVCAR-5 ovarian
[22] = test system: RXF 393 renal
[23] = test system: ACHN renal
[24] = test system: KM20L2 colon
[25] = test system: SK-MEL-2 melanoma
[26] = test system: SW-620 colon
[27] = test system: NCI-H23 lung
[28] = test system: OVCAR-3 ovarian
[29] = test system: HOP-62 NSCLC
[30] = test system: CAKI-1 renal
[31] = test system: CCRF-CEM leukemia
[32] = test system: SF-539 CNS
[33] = test system: OVCAR-8 ovarian
[34] = test system: SK-MEL-28 melanoma
[35] = test system: HCC-2998 colon
[36] = test system: A498 renal
[37] = test system: 786-0 renal
[38] = test system: SF-268 CNS
[39] = test system: COLO 205 colon
[40] = test system: NCI-H522 lung
[41] = test system: SN12C renal
[42] = test system: K-562 leukemia
[43] = test system: SR leukemia
[44] = test system: IGROV1 ovarian
[45] = test system: HT29 colon
[46] = test system: M14 melanoma
[47] = test system: NCI-H460 lung
[48] = test system: U251 CNS
[49] = test system: SNB-75 CNS
[50] = test system: M19-MEL melanoma
[51] = test system: HOP-18 NSCLC
[52] = test system: LXFL 529 NSCLC
[53] = test system: DMS 273 small cell lung
[54] = test system: LOX IMVI melanoma
[55] = test system: SNB-78 CNS
[56] = test system: NCI-H226 lung

CC(C)c1cccc(C(C)C)c1NC(=O)C(=O)CC(=O)CC(c1ccccc1)c1c(O)c2ccccc2oc1=O (stereo unspecified)
TGI [1]: > 100 µM
TGI [2]: > 100 µM
TGI [3]: > 100 µM
TGI [4]: > 100 µM
TGI [5]: > 100 µM
TGI [6]: > 100 µM
TGI [7]: > 100 µM
TGI [8]: > 100 µM
TGI [9]: > 100 µM
TGI [10]: > 100 µM
TGI [11]: > 100 µM
TGI [12]: > 100 µM
TGI [13]: > 100 µM
TGI [14]: > 100 µM
TGI [15]: > 100 µM
TGI [16]: > 100 µM
TGI [17]: > 100 µM
TGI [18]: > 100 µM
TGI [19]: > 100 µM
TGI [20]: > 100 µM
TGI [21]: > 100 µM
TGI [22]: > 100 µM
TGI [23]: > 100 µM
TGI [24]: > 100 µM
TGI [25]: > 100 µM
TGI [26]: > 100 µM
TGI [27]: > 100 µM
TGI [28]: > 100 µM
TGI [29]: > 100 µM
TGI [30]: > 100 µM
TGI [31]: > 100 µM
TGI [32]: > 100 µM
TGI [33]: > 100 µM
TGI [34]: > 100 µM
TGI [35]: > 100 µM
TGI [36]: > 100 µM
TGI [37]: > 100 µM
TGI [38]: > 100 µM
TGI [39]: > 100 µM
TGI [40]: > 100 µM
TGI [41]: > 100 µM
TGI [42]: > 100 µM
TGI [43]: > 100 µM
TGI [44]: > 100 µM
TGI [45]: > 100 µM
TGI [46]: > 100 µM
TGI [47]: > 100 µM

CC1C(/C=C/c2ccoc2)ON2CCCC12 (stereo unspecified)
TGI [48]: > 100 µM
TGI [2]: > 100 µM
TGI [49]: > 100 µM
TGI [50]: > 100 µM
TGI [51]: > 100 µM
TGI [52]: > 100 µM
TGI [5]: > 100 µM
TGI [6]: > 100 µM
TGI [53]: > 100 µM
TGI [54]: > 100 µM
TGI [7]: > 100 µM
TGI [9]: > 100 µM
TGI [10]: > 100 µM
TGI [12]: > 100 µM
TGI [15]: > 100 µM
TGI [17]: > 100 µM
TGI [19]: > 100 µM
TGI [55]: > 100 µM
TGI [20]: > 100 µM
TGI [21]: > 100 µM
TGI [56]: > 100 µM
TGI [22]: > 100 µM
TGI [23]: > 100 µM
TGI [24]: > 100 µM
TGI [25]: > 100 µM
TGI [26]: > 100 µM
TGI [27]: > 100 µM
TGI [30]: > 100 µM
TGI [32]: > 100 µM
TGI [33]: > 100 µM
TGI [34]: > 100 µM
TGI [35]: > 100 µM
TGI [37]: > 100 µM
TGI [38]: > 100 µM
TGI [39]: > 100 µM
TGI [40]: > 100 µM
TGI [41]: > 100 µM
TGI [45]: > 100 µM
TGI [47]: > 100 µM

Cc1ccc(/C=C/C(=O)C(C)C)cc1
TGI [48]: > 100 µM
TGI [1]: > 100 µM
TGI [2]: > 100 µM
TGI [49]: > 100 µM
TGI [50]: > 100 µM
TGI [52]: > 100 µM
TGI [3]: > 100 µM
TGI [5]: > 100 µM
TGI [6]: > 100 µM
TGI [7]: > 100 µM
TGI [8]: 76.9 µM
TGI [9]: > 100 µM
TGI [10]: > 100 µM
TGI [11]: 72.7 µM
TGI [13]: > 100 µM
TGI [14]: > 100 µM
TGI [16]: > 100 µM
TGI [17]: > 100 µM
TGI [18]: > 100 µM
TGI [19]: > 100 µM
TGI [55]: > 100 µM
TGI [20]: > 100 µM
TGI [21]: 53.7 µM
TGI [22]: > 100 µM
TGI [23]: > 100 µM
TGI [24]: > 100 µM
TGI [25]: > 100 µM
TGI [26]: > 100 µM
TGI [27]: > 100 µM
TGI [28]: 83.1 µM
TGI [31]: 67.3 µM
TGI [33]: > 100 µM
TGI [34]: > 100 µM
TGI [35]: > 100 µM
TGI [36]: > 100 µM
TGI [37]: > 100 µM
TGI [38]: > 100 µM
TGI [39]: > 100 µM
TGI [40]: > 100 µM
TGI [42]: > 100 µM
TGI [43]: 98.4 µM
TGI [44]: > 100 µM
TGI [45]: > 100 µM
TGI [46]: > 100 µM
TGI [47]: > 100 µM
